From patent US20220162192A1 (ESCAPE Bio, Inc., priority 2019, published 2022)
Like-named read-outs stand apart in the source and are kept apart here.

Legend:
[1] = target: T1, Recombinant G2019S-LRRK2 protein (Homo sapiens, UniProt Q5S007, G2019S); assay: LanthaScreen Kinase Activity Assay (TR-FRET), G2019S-LRRK2; assay type: biochemical; conditions: class symbols; 25 μM ATP, 400 nM LRRKtide, 2.9 nM kinase, 60 min at room temperature
T1 construct: purchased Life Technologies PV4881
Procedure, shortened: (§1)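 Recombinant wild-type or G2019S LRRK2 (2.9 nM final) phosphorylated fluorescein-LRRKtide (400 nM) with 25 μM ATP in 50 mM Tris pH 8.5, 5 mM MgCl2, 1 mM EGTA, 0.01% Brij-35, 2 mM DTT for 60 min at RT. After EDTA stop, Tb-anti-pERM TR-FRET (520/495 nm ratio) was read. IC50 values came from 11-point, 3-fold compound dilutions.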

[2] = target: T2, Recombinant wild type LRRK2 protein (Homo sapiens, UniProt Q5S007); assay: LanthaScreen Kinase Activity Assay (TR-FRET), wild type LRRK2; assay type: biochemical; conditions: 25 μM ATP, 400 nM LRRKtide, 2.9 nM kinase, 60 min at room temperature, read-out: LRRK2 WT IC50
T2 construct: purchased Life Technologies PR8604B
Procedure, shortened: as §1

T1 sequence (Q5S007 whole entry G2019S): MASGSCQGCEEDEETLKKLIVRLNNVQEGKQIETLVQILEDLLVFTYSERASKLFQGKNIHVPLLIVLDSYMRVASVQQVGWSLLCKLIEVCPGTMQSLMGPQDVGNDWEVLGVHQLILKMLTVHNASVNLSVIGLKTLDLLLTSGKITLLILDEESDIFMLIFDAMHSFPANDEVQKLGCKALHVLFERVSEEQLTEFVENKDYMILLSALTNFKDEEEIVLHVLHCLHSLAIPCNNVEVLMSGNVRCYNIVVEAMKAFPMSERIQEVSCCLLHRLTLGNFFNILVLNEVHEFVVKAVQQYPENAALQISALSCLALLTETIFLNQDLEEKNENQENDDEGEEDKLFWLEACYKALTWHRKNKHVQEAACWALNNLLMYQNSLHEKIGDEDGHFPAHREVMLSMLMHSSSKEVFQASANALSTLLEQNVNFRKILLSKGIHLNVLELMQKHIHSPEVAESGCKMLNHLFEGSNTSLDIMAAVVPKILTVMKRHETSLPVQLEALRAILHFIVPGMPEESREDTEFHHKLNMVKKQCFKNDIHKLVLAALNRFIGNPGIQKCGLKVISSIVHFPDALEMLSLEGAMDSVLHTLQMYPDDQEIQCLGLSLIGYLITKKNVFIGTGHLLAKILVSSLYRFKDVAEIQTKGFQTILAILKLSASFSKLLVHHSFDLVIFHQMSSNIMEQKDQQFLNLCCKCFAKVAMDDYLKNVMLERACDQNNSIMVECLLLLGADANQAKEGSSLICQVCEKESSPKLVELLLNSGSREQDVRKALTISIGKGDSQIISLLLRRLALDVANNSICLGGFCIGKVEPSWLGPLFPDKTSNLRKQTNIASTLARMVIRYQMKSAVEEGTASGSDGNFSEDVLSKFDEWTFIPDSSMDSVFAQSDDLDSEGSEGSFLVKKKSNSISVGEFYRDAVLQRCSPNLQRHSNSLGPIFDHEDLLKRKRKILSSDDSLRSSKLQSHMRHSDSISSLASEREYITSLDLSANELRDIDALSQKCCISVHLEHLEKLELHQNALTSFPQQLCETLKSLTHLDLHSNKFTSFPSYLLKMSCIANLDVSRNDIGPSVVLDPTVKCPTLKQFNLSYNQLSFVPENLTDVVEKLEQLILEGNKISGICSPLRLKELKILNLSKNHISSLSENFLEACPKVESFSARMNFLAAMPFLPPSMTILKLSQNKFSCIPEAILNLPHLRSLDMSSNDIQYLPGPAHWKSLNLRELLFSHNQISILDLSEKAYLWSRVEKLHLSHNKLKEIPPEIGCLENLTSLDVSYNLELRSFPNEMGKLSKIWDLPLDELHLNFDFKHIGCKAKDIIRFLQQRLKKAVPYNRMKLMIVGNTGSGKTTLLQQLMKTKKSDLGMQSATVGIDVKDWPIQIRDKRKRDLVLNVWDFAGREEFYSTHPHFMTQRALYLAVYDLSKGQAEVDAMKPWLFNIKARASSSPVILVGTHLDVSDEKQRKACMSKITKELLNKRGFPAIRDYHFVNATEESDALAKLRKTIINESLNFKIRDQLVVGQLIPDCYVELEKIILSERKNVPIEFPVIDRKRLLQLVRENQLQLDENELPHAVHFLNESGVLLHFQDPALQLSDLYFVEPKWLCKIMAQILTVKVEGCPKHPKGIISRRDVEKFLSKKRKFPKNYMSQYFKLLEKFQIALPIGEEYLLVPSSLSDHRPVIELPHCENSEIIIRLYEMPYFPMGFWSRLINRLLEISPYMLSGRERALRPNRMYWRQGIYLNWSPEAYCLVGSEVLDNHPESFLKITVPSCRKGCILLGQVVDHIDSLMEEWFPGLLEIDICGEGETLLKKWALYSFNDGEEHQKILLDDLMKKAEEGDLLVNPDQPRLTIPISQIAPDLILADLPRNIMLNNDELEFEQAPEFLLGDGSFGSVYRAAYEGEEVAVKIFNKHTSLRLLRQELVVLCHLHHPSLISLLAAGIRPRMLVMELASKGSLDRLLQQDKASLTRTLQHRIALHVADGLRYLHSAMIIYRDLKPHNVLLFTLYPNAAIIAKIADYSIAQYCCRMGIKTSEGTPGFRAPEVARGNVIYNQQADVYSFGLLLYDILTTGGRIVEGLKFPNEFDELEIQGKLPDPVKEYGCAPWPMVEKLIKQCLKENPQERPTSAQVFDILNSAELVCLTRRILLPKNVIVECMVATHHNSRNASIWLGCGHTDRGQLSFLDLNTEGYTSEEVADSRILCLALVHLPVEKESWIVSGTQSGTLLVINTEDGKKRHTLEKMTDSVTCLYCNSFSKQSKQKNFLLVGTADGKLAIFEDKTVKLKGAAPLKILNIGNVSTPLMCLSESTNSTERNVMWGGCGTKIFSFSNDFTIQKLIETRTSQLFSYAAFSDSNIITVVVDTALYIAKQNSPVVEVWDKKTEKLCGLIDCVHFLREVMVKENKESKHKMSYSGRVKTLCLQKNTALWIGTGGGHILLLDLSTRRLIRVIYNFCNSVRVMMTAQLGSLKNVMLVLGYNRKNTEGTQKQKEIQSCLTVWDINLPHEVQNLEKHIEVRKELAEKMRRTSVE
T2 sequence (Q5S007 whole entry): as the sequence (Q5S007 whole entry G2019S) above, with S2019G counted along it

IC50 [1] [µM] | IC50 ([2]; class symbols) [µM] | IC50 ([2]; numeric bound instead of class symbol) [µM] | SMILES
≤ 0.1 | 0.1 to 1 | – | Cn1nccc1-c1n[nH]c2ccc(NC(=O)c3c(F)cc4c(cnn4C)c3F)cc12 [Example 96, 4,6-Difluoro-1-methyl-N-(3-(1-methyl-1H-pyrazol-5-yl)-1H-indazol-5-yl)-1H-indazole-5-carboxamide]
≤ 0.1 | ≤ 0.1 | – | Cn1ncc2c(F)c(C(=O)Nc3cc4c(-c5ccoc5)n[nH]c4cc3F)c(F)cc21 [Example 144, 4,6-Difluoro-N-(6-fluoro-3-(furan-3-yl)-1H-indazol-5-yl)-1-methyl-1H-indazole-5-carboxamide]
≤ 0.1 | 0.1 to 1 | – | Cn1ncc2c(F)c(C(=O)Nc3ccc4[nH]nc(-n5ccnc5)c4c3)c(F)cc21 [Example 141, N-(3-(1H-Imidazol-1-yl)-1H-indazol-5-yl)-4,6-difluoro-1-methyl-1H-indazole-5-carboxamide]
1 to 10 | 1 to 10 | – | Cc1ccccc1-c1n[nH]c2ccc(NC(=O)c3c(F)cc4c(cnn4C)c3F)cc12 [Example 77, 4,6-Difluoro-1-methyl-N-(3-(o-tolyl)-1H-indazol-5-yl)-1H-indazole-5-carboxamide]
≤ 0.1 | 0.1 to 1 | – | Cc1cc2c(C)nnn2c(C)c1C(=O)Nc1ccc2[nH]nc(-c3ccccc3)c2c1 [Example 64, 3,5,7-Trimethyl-N-(3-phenyl-1H-indazol-5-yl)-[1,2,3]triazolo[1,5-a]pyridine-6-carboxamide]
≤ 0.1 | 0.1 to 1 | – | Cn1ncc2c(F)c(C(=O)Nc3ccc4[nH]nc(NCc5ccccc5)c4c3)c(F)cc21 [Example 110, N-(3-(Benzylamino)-1H-indazol-5-yl)-4,6-difluoro-1-methyl-1H-indazole-5-carboxamide]
≤ 0.1 | ≤ 0.1 | – | Cc1cc2c(cnn2C)cc1C(=O)Nc1ccc2[nH]nc(-c3ccoc3)c2c1 [Example 158, N-(3-(Furan-3-yl)-1H-indazol-5-yl)-1,6-dimethyl-1H-indazole-5-carboxamide]
≤ 0.1 | ≤ 0.1 | – | CN(C)c1cccc(-c2n[nH]c3ccc(NC(=O)c4c(F)cc5c(cnn5C)c4F)cc23)c1 [Example 88, N-(3-(3-(Dimethylamino)phenyl)-1H-indazol-5-yl)-4,6-difluoro-1-methyl-1H-indazole-5-carboxamide]
≤ 0.1 | 0.1 to 1 | – | Cn1ncc2c(F)c(C(=O)Nc3ccc4[nH]nc(C(F)(F)F)c4c3)c(F)cc21 [Example 115, 4,6-Difluoro-1-methyl-N-(3-(trifluoromethyl)-1H-indazol-5-yl)-1H-indazole-5-carboxamide]
≤ 0.1 | ≤ 0.1 | – | Cc1cc2cncn2c(C)c1C(=O)Nc1ccc2[nH]nc(-c3ccccc3)c2c1 [Example 69, 5,7-Dimethyl-N-(3-phenyl-1H-indazol-5-yl)imidazo[1,5-a]pyridine-6-carboxamide]
≤ 0.1 | ≤ 0.1 | – | COc1cccc(-c2n[nH]c3ccc(NC(=O)c4c(F)cc5c(cnn5C)c4F)cc23)c1 [Example 84, 4,6-Difluoro-N-(3-(3-methoxyphenyl)-1H-indazol-5-yl)-1-methyl-1H-indazole-5-carboxamide]
0.1 to 1 | 1 to 10 | – | Cn1ncc2c(F)c(C(=O)Nc3ccc4[nH]nc(-c5ccccc5O)c4c3)c(F)cc21 [Example 75, 4,6-Difluoro-N-(3-(2-hydroxyphenyl)-1H-indazol-5-yl)-1-methyl-1H-indazole-5-carboxamide]
≤ 0.1 | ≤ 0.1 | – | Cc1cc2c(C)ncn2c(C)c1C(=O)Nc1ccc2[nH]nc(-c3ccoc3)c2c1 [Example 147, N-(3-(Furan-3-yl)-1H-indazol-5-yl)-1,5,7-trimethylimidazo[1,5-a]pyridine-6-carboxamide]
≤ 0.1 | ≤ 0.1 | – | Cc1nn(C)cc1-c1n[nH]c2ccc(NC(=O)c3c(F)cc4c(cnn4C)c3F)cc12 [Example 80, N-(3-(1,3-Dimethyl-1H-pyrazol-4-yl)-1H-indazol-5-yl)-4,6-difluoro-1-methyl-1H-indazole-5-carboxamide]
≤ 0.1 | 0.1 to 1 | – | Cn1ncc2c(F)c(C(=O)Nc3ccc4[nH]nc(-c5ncco5)c4c3)c(F)cc21 [Example 138, 4,6-Difluoro-1-methyl-N-(3-(oxazol-2-yl)-1H-indazol-5-yl)-1H-indazole-5-carboxamide]
≤ 0.1 | ≤ 0.1 | – | Cc1cc2cnnn2cc1C(=O)Nc1ccc2[nH]nc(-c3ccccc3)c2c1 [Example 43, 5-Methyl-N-(3-phenyl-1H-indazol-5-yl)-[1,2,3]triazolo[1,5-a]pyridine-6-carboxamide]
≤ 0.1 | ≤ 0.1 | – | Cn1ncc2c(F)c(C(=O)Nc3ccc4[nH]nc(-c5cccnc5)c4c3)c(F)cc21 [Example 32, 4,6-Difluoro-1-methyl-N-(3-(pyridin-3-yl)-1H-indazol-5-yl)-1H-indazole-5-carboxamide]
0.1 to 1 | 1 to 10 | – | Cn1ncc2cc(C(=O)Nc3ccc4[nH]nc(-c5ccccc5)c4c3)ccc21 [Example 107, 1-Methyl-N-(3-phenyl-1H-indazol-5-yl)-1H-indazole-5-carboxamide]
≤ 0.1 | 0.1 to 1 | – | COc1ccncc1-c1n[nH]c2ccc(NC(=O)c3c(F)cc4c(cnn4C)c3F)cc12 [Example 102, 4,6-Difluoro-N-(3-(4-methoxypyridin-3-yl)-1H-indazol-5-yl)-1-methyl-1H-indazole-5-carboxamide]

The next lines start with the molecule.

SMILES | IC50 [1] [µM] | IC50 ([2]; class symbols) [µM] | IC50 ([2]; numeric bound instead of class symbol) [µM]
O=C(Nc1ccc2[nH]nc(-c3ccccc3)c2c1)c1cc2[nH]ncc2cc1Br [Example 24, 5-Bromo-N-(3-phenyl-1H-indazol-5-yl)-1H-indazole-6-carboxamide] | ≤ 0.1 | ≤ 0.1 | –
Cn1cc2c(n1)CCC(C(=O)Nc1ccc3[nH]nc(-c4ccoc4)c3c1)C2 (single isomer, unassigned) [Example 161d] | ≤ 0.1 | 0.1 to 1 | –
Cc1n[nH]c2ccc(NC(=O)c3ccc4[nH]nnc4c3C#N)cc12 [Example 14, 4-Cyano-N-(3-methyl-1H-indazol-5-yl)-1H-benzo[d][1,2,3]triazole-5-carboxamide] | 1 to 10 | – | > 10
O=C(Nc1ccc2[nH]nc(-c3ccoc3)c2c1)C1CCc2cncn2C1 (single isomer, unassigned) [Example 173b] | 1 to 10 | 1 to 10 | –
Cc1c(C(=O)Nc2ccc3[nH]nc(-c4ccoc4)c3c2)cnc2cncn12 [Example 113, N-(3-(Furan-3-yl)-1H-indazol-5-yl)-4-methylimidazo[1,5-a]pyrimidine-3-carboxamide] | ≤ 0.1 | ≤ 0.1 | –
O=C(Nc1ccc2[nH]nc(-c3ccoc3)c2c1)c1cnc2nccn2c1 [Example 129, N-(3-(Furan-3-yl)-1H-indazol-5-yl)imidazo[1,2-a]pyrimidine-6-carboxamide] | ≤ 0.1 | 0.1 to 1 | –
Cc1c(C(=O)Nc2ccc3[nH]nc(-c4ccccc4)c3c2)ccc2cncn12 [Example 62, 5-Methyl-N-(3-phenyl-1H-indazol-5-yl)imidazo[1,5-a]pyridine-6-carboxamide] | ≤ 0.1 | 0.1 to 1 | –
Cc1cn2cncc2cc1C(=O)Nc1ccc2[nH]nc(-c3ccco3)c2c1 [Example 154, N-(3-(Furan-2-yl)-1H-indazol-5-yl)-6-methylimidazo[1,5-a]pyridine-7-carboxamide] | ≤ 0.1 | ≤ 0.1 | –
Cn1cc2cc(C(=O)Nc3ccc4[nH]nc(-c5cnco5)c4c3)ncc2n1 [Example 159, 2-Methyl-N-(3-(oxazol-5-yl)-1H-indazol-5-yl)-2H-pyrazolo[3,4-c]pyridine-5-carboxamide] | ≤ 0.1 | ≤ 0.1 | –
Cc1cc2cncn2cc1C(=O)Nc1ccc2[nH]nc(-c3ccoc3)c2c1 [Example 146, N-(3-(Furan-3-yl)-1H-indazol-5-yl)-7-methylimidazo[1,5-a]pyridine-6-carboxamide] | ≤ 0.1 | ≤ 0.1 | –
O=C(Nc1ccc2[nH]nc(-c3ccccc3)c2c1)c1cc2[nH]ncc2cc1C(F)(F)F [Example 70, N-(3-Phenyl-1H-indazol-5-yl)-5-(trifluoromethyl)-1H-indazole-6-carboxamide] | ≤ 0.1 | 0.1 to 1 | –
Cc1c(C(=O)Nc2ccc3[nH]nc(-c4ccncc4)c3c2)ccc2[nH]nnc12 [Example 12, 4-Methyl-N-(3-(pyridin-4-yl)-1H-indazol-5-yl)-1H-benzo[d][1,2,3]triazole-5-carboxamide] | ≤ 0.1 | 0.1 to 1 | –
Cc1cc2cnnn2c(C)c1C(=O)Nc1ccc2[nH]nc(C)c2c1 [Example 49, 5,7-Dimethyl-N-(3-methyl-1H-indazol-5-yl)-[1,2,3]triazolo[1,5-a]pyridine-6-carboxamide] | ≤ 0.1 | 1 to 10 | –
Cc1cc2nncn2c(C)c1C(=O)Nc1ccc2[nH]nc(-c3ccoc3)c2c1 [Example 153, N-(3-(Furan-3-yl)-1H-indazol-5-yl)-5,7-dimethyl-[1,2,4]triazolo[4,3-a]pyridine-6-carboxamide] | ≤ 0.1 | ≤ 0.1 | –
Cn1cnc2cc(C(=O)Nc3ccc4[nH]nc(-c5ccoc5)c4c3)ccc21 [Example 132, N-(3-(Furan-3-yl)-1H-indazol-5-yl)-1-methyl-1H-benzo[d]imidazole-5-carboxamide] | 0.1 to 1 | 0.1 to 1 | –
Cn1ncc2nc(C(=O)Nc3ccc4[nH]nc(-c5cnco5)c4c3)ccc21 [Example 165, 1-Methyl-N-(3-(oxazol-5-yl)-1H-indazol-5-yl)-1H-pyrazolo[4,3-b]pyridine-5-carboxamide] | ≤ 0.1 | 0.1 to 1 | –
